In brackets after ≈: the same amount, converted by molar mass. Activity calls are given as the source filed them. No cut-off for these calls is given here.
Columns and labels:
Format in all cases: functional
Alternaria alternata = assay: Antifungal activity against Alternaria alternata assessed as growth inhibition after 48 hr by broth dilution method
Pseudomonas aeruginosa = assay: Antibacterial activity against Pseudomonas aeruginosa assessed as growth inhibition after 24 hr by agar well diffusion method
Shigella flexneri = assay: Antibacterial activity against Shigella flexneri assessed as growth inhibition after 24 hr by agar well diffusion method
Staphylococcus aureus = assay: Antibacterial activity against Staphylococcus aureus assessed as growth inhibition after 24 hr by agar well diffusion method
Escherichia coli = assay: Antibacterial activity against Escherichia coli assessed as growth inhibition after 24 hr by agar well diffusion method
Salmonella typhi = assay: Antibacterial activity against Salmonella enterica subsp. enterica serovar Typhi assessed as growth inhibition after 24 hr by agar well diffusion method
Aspergillus flavus = assay: Antifungal activity against Aspergillus flavus assessed as growth inhibition after 48 hr by broth dilution method
Aspergillus fumigatus = assay: Antifungal activity against Aspergillus fumigatus assessed as growth inhibition after 48 hr by broth dilution method
Bacillus subtilis = assay: Antibacterial activity against Bacillus subtilis assessed as growth inhibition after 24 hr by agar well diffusion method

## Nc1nc(-c2ccc(-n3ccnc3)cc2)cc(-c2ccc(Cl)c(Cl)c2Cl)n1
Alternaria alternata
  MIC: > 1000 µg/mL
Pseudomonas aeruginosa
  growth inhibition (GI): inactive
Shigella flexneri
  diameter of the inhibition zone (DIZ): 11 mm
Staphylococcus aureus
  diameter of the inhibition zone (DIZ): 15 mm
Escherichia coli
  diameter of the inhibition zone (DIZ): 18 mm
Salmonella typhi
  growth inhibition (GI): inactive
Aspergillus flavus
  MIC: > 1000 µg/mL
Aspergillus fumigatus
  MIC: > 1000 µg/mL
Bacillus subtilis
  diameter of the inhibition zone (DIZ): 15 mm

## Nc1nc(-c2ccc(Br)cc2)cc(-c2ccc(-n3ccnc3)cc2)n1
Alternaria alternata
  MIC: > 1000 µg/mL
Pseudomonas aeruginosa
  growth inhibition (GI): inactive
Shigella flexneri
  diameter of the inhibition zone (DIZ): 12 mm
Staphylococcus aureus
  diameter of the inhibition zone (DIZ): 12 mm
Escherichia coli
  diameter of the inhibition zone (DIZ): 12 mm
Salmonella typhi
  growth inhibition (GI): inactive
Aspergillus flavus
  MIC: 1000 µg/mL (≈ 2550 µM)
Aspergillus fumigatus
  MIC: 1000 µg/mL (≈ 2550 µM)
Bacillus subtilis
  diameter of the inhibition zone (DIZ): 13 mm

## COc1cccc(-c2cc(-c3ccc(-n4ccnc4)cc3)nc(N)n2)c1
Alternaria alternata
  MIC: 1000 µg/mL (≈ 2910 µM)
Pseudomonas aeruginosa
  diameter of the inhibition zone (DIZ): 12 mm
Shigella flexneri
  growth inhibition (GI): inactive
Staphylococcus aureus
  diameter of the inhibition zone (DIZ): 14 mm
Escherichia coli
  diameter of the inhibition zone (DIZ): 13 mm
Salmonella typhi
  growth inhibition (GI): inactive
Aspergillus flavus
  MIC: 1000 µg/mL (≈ 2910 µM)
Aspergillus fumigatus
  MIC: > 1000 µg/mL
Bacillus subtilis
  growth inhibition (GI): inactive

## C[C@@H](O)[C@H]1C(=O)N2C(C(=O)O)=C(SCCNC=N)C[C@H]12 [IMIPENEM ANHYDROUS]
Pseudomonas aeruginosa
  diameter of the inhibition zone (DIZ): 31 mm
Shigella flexneri
  diameter of the inhibition zone (DIZ): 30 mm
Staphylococcus aureus
  diameter of the inhibition zone (DIZ): 30 mm
Escherichia coli
  diameter of the inhibition zone (DIZ): 35 mm
Salmonella typhi
  diameter of the inhibition zone (DIZ): 25 mm
Bacillus subtilis
  diameter of the inhibition zone (DIZ): 30 mm

## Nc1nc(-c2ccccc2)cc(-c2ccc(-n3ccnc3)cc2)n1
Alternaria alternata
  MIC: > 1000 µg/mL
Pseudomonas aeruginosa
  growth inhibition (GI): inactive
Shigella flexneri
  growth inhibition (GI): inactive
Staphylococcus aureus
  growth inhibition (GI): inactive
Escherichia coli
  diameter of the inhibition zone (DIZ): 11 mm
Salmonella typhi
  growth inhibition (GI): inactive
Aspergillus flavus
  MIC: 1000 µg/mL (≈ 3190 µM)
Aspergillus fumigatus
  MIC: 1000 µg/mL (≈ 3190 µM)
Bacillus subtilis
  diameter of the inhibition zone (DIZ): 13 mm

## Nc1nc(-c2ccc(Cl)cc2)cc(-c2ccc(-n3ccnc3)cc2)n1
Alternaria alternata
  MIC: 1000 µg/mL (≈ 2880 µM)
Pseudomonas aeruginosa
  growth inhibition (GI): inactive
Shigella flexneri
  diameter of the inhibition zone (DIZ): 11 mm
Staphylococcus aureus
  growth inhibition (GI): inactive
Escherichia coli
  diameter of the inhibition zone (DIZ): 18 mm
Salmonella typhi
  growth inhibition (GI): inactive
Aspergillus flavus
  MIC: 1000 µg/mL (≈ 2880 µM)
Aspergillus fumigatus
  MIC: 1000 µg/mL (≈ 2880 µM)
Bacillus subtilis
  diameter of the inhibition zone (DIZ): 12 mm

## COc1cc(-c2cc(-c3ccc(-n4ccnc4)cc3)nc(N)n2)ccc1OO
Alternaria alternata
  MIC: > 1000 µg/mL
Pseudomonas aeruginosa
  diameter of the inhibition zone (DIZ): 10 mm
Shigella flexneri
  growth inhibition (GI): inactive
Staphylococcus aureus
  diameter of the inhibition zone (DIZ): 13 mm
Escherichia coli
  diameter of the inhibition zone (DIZ): 15 mm
Salmonella typhi
  growth inhibition (GI): inactive
Aspergillus flavus
  MIC: 1000 µg/mL (≈ 2660 µM)
Aspergillus fumigatus
  MIC: > 1000 µg/mL
Bacillus subtilis
  growth inhibition (GI): inactive

## Nc1nc(-c2ccc(-n3ccnc3)cc2)cc(-c2ccc(Cl)cc2Cl)n1
Alternaria alternata
  MIC: 1000 µg/mL (≈ 2620 µM)
Pseudomonas aeruginosa
  growth inhibition (GI): inactive
Shigella flexneri
  diameter of the inhibition zone (DIZ): 10 mm
Staphylococcus aureus
  diameter of the inhibition zone (DIZ): 11 mm
Escherichia coli
  diameter of the inhibition zone (DIZ): 14 mm
Salmonella typhi
  growth inhibition (GI): inactive
Aspergillus flavus
  MIC: > 1000 µg/mL
Aspergillus fumigatus
  MIC: > 1000 µg/mL
Bacillus subtilis
  growth inhibition (GI): inactive

## COc1ccc(-c2cc(-c3ccc(-n4ccnc4)cc3)nc(N)n2)cc1
Alternaria alternata
  MIC: > 1000 µg/mL
Pseudomonas aeruginosa
  diameter of the inhibition zone (DIZ): 11 mm
Shigella flexneri
  diameter of the inhibition zone (DIZ): 11 mm
Staphylococcus aureus
  growth inhibition (GI): inactive
Escherichia coli
  diameter of the inhibition zone (DIZ): 12 mm
Salmonella typhi
  growth inhibition (GI): inactive
Aspergillus flavus
  MIC: > 1000 µg/mL
Aspergillus fumigatus
  MIC: 1000 µg/mL (≈ 2910 µM)
Bacillus subtilis
  diameter of the inhibition zone (DIZ): 14 mm

## Nc1nc(-c2ccc(F)cc2)cc(-c2ccc(-n3ccnc3)cc2)n1
Alternaria alternata
  MIC: 1000 µg/mL (≈ 3020 µM)
Pseudomonas aeruginosa
  growth inhibition (GI): inactive
Shigella flexneri
  diameter of the inhibition zone (DIZ): 12 mm
Staphylococcus aureus
  growth inhibition (GI): inactive
Escherichia coli
  diameter of the inhibition zone (DIZ): 16 mm
Salmonella typhi
  growth inhibition (GI): inactive
Aspergillus flavus
  MIC: 1000 µg/mL (≈ 3020 µM)
Aspergillus fumigatus
  MIC: 500 µg/mL (≈ 1510 µM)
Bacillus subtilis
  growth inhibition (GI): inactive

## Nc1nc(-c2ccc(I)cc2)cc(-c2ccc(-n3ccnc3)cc2)n1
Alternaria alternata
  MIC: 1000 µg/mL (≈ 2280 µM)
Pseudomonas aeruginosa
  growth inhibition (GI): inactive
Shigella flexneri
  growth inhibition (GI): inactive
Staphylococcus aureus
  diameter of the inhibition zone (DIZ): 16 mm
Escherichia coli
  diameter of the inhibition zone (DIZ): 20 mm
Salmonella typhi
  growth inhibition (GI): inactive
Aspergillus flavus
  MIC: 1000 µg/mL (≈ 2280 µM)
Aspergillus fumigatus
  MIC: 1000 µg/mL (≈ 2280 µM)
Bacillus subtilis
  diameter of the inhibition zone (DIZ): 21 mm

## Nc1nc(-c2ccc(-n3ccnc3)cc2)cc(-c2cc(Cl)ccc2Cl)n1
Alternaria alternata
  MIC: > 1000 µg/mL
Pseudomonas aeruginosa
  growth inhibition (GI): inactive
Shigella flexneri
  diameter of the inhibition zone (DIZ): 12 mm
Staphylococcus aureus
  growth inhibition (GI): inactive
Escherichia coli
  diameter of the inhibition zone (DIZ): 12 mm
Salmonella typhi
  growth inhibition (GI): inactive
Aspergillus flavus
  MIC: > 1000 µg/mL
Aspergillus fumigatus
  MIC: > 1000 µg/mL
Bacillus subtilis
  diameter of the inhibition zone (DIZ): 12 mm
